Where “and” joins values, the source holds several entries; their conditions need not be identical. Equal values may be shown once.
Columns and labels:
Alpha Polymerase = target: T1, Alpha Polymerase (Homo sapiens, UniProt P09884); experiment: Alpha polymerase inhibition (selectivity); format: biochemical
T1 sequence (P09884 1-1462): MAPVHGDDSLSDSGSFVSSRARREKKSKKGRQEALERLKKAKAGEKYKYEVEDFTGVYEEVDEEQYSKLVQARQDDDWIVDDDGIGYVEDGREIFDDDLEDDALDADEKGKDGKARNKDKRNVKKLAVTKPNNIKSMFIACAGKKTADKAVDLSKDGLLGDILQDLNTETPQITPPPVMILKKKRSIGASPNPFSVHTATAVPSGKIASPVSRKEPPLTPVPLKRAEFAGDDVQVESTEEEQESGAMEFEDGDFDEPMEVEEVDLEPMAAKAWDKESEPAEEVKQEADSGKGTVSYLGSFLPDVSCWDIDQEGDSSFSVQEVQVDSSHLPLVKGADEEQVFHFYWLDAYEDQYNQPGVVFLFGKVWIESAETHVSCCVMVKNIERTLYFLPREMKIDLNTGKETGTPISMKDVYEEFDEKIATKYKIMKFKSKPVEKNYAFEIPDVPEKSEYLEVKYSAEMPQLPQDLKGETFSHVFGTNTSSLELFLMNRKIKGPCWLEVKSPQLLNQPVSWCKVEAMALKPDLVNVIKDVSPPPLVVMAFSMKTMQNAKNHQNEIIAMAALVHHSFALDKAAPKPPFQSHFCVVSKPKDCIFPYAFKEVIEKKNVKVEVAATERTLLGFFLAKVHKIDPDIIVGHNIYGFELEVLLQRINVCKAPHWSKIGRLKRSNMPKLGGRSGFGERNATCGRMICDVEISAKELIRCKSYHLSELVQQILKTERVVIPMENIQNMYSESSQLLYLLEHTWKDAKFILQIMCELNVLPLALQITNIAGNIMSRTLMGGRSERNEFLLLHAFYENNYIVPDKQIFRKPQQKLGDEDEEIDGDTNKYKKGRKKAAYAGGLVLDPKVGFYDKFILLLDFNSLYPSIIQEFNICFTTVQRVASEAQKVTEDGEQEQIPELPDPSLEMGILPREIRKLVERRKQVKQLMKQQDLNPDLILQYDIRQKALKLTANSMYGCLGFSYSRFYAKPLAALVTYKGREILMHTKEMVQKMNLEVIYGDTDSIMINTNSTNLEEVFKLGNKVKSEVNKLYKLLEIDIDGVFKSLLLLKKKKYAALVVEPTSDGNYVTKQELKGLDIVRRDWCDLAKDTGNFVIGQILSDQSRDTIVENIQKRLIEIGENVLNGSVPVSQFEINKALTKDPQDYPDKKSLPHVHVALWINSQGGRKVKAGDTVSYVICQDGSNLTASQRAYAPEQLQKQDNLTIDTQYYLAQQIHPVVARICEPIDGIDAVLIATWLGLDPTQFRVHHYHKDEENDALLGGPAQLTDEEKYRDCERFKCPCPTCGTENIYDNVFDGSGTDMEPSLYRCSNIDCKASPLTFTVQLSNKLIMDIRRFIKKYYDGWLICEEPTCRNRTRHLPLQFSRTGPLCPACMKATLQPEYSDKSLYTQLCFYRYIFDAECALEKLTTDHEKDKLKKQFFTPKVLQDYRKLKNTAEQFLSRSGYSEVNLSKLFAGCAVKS

HCMV polymerase = target: T2, HCMV polymerase (Human cytomegalovirus, UniProt P08546); experiment: HCMV polymerase assay (scintillation proximity assay), original and modified version; format: biochemical; conditions: SPA; several values per example = repeat determinations, assay version not given; read-out: CMV Polymerase IC50
T2 construct: made in house; host or cells: SF-9 insect cells infected with recombinant baculovirus
Experimental: The HCMV polymerase assay is performed using a scintillation proximity assay (SPA) as described in several references, such as N.D. Cook, et al., Pharmaceutical Manufacturing International, pages 49-53 (1992); K. Takeuchi, Laboratory Practice, September issue (1992); U.S. Pat. No. 4,568,649 (1986); which are incorporated by reference herein. Reactions are performed in 96-well plates. The assay is conducted in 100 μl volume with 5.4 mM HEPES (pH 7.5), 11.7 MM KCl, 4.5 mM MgCl2, 0.36 mg/ml BSA, and 90 nM ^3H-dTTP. Assays are run with and without CHAPS, (3-[(3-Cholamidopropyl)-dimethylammoniol-1-propane-sulfonate) at a final concentration of 2 mM. HCMV polymerase is diluted in enzyme dilution buffer containing 50% glycerol, 250 mM NaCl, 10 mM HEPES (pH 7.5), 100 μg/ml BSA, and 0.01% sodium azide. The HCMV polymerase, which is expressed in recombinant baculovirus-infected SF-9 cells and purified according to literature procedures, is added at 10% (or 10 μl) of the final reaction volume, i.e., 100 μl. Compounds are diluted in 50% DMSO and 10 μl are added to each well. Control wells contain an equivalent concentration of DMSO. Unless noted otherwise, reactions are initiated via the addition of 6 nM biotinylated poly(dA)-oligo(dT) template/primer to reaction mixtures containing the enzyme, substrate, and compounds of interest. Plates are incubated in a 25° C. or 37° C. H2O bath and terminated via the addition of 40 μl/reaction of 0.5 M EDTA (pH 8) per well. Reactions are terminated within the time-frame during which substrate incorporation is linear and varied depending upon the enzyme and conditions used, i.e., 30 min. for HCMV polymerase. Ten (10) μl of streptavidin-SPA beads (20 mg/ml in PBS/10% glycerol) are added following termination of the reaction. Plates are incubated 10 min. at 37° C., then equilibrated to room temperature, and counted on a Packard Topcount. Linear regressions are performed and IC50's are calculated using computer software.
A modified version of the above HCMV polymerase assay is performed as described above, but with the following changes: Compounds are diluted in 100% DMSO until final dilution into assay buffer. In the previous assay, compounds are diluted in 50% DMSO. 4.5 mM dithiotherotol (DTT) is added to the polymerase buffer.

T2 sequence (P08546 whole entry): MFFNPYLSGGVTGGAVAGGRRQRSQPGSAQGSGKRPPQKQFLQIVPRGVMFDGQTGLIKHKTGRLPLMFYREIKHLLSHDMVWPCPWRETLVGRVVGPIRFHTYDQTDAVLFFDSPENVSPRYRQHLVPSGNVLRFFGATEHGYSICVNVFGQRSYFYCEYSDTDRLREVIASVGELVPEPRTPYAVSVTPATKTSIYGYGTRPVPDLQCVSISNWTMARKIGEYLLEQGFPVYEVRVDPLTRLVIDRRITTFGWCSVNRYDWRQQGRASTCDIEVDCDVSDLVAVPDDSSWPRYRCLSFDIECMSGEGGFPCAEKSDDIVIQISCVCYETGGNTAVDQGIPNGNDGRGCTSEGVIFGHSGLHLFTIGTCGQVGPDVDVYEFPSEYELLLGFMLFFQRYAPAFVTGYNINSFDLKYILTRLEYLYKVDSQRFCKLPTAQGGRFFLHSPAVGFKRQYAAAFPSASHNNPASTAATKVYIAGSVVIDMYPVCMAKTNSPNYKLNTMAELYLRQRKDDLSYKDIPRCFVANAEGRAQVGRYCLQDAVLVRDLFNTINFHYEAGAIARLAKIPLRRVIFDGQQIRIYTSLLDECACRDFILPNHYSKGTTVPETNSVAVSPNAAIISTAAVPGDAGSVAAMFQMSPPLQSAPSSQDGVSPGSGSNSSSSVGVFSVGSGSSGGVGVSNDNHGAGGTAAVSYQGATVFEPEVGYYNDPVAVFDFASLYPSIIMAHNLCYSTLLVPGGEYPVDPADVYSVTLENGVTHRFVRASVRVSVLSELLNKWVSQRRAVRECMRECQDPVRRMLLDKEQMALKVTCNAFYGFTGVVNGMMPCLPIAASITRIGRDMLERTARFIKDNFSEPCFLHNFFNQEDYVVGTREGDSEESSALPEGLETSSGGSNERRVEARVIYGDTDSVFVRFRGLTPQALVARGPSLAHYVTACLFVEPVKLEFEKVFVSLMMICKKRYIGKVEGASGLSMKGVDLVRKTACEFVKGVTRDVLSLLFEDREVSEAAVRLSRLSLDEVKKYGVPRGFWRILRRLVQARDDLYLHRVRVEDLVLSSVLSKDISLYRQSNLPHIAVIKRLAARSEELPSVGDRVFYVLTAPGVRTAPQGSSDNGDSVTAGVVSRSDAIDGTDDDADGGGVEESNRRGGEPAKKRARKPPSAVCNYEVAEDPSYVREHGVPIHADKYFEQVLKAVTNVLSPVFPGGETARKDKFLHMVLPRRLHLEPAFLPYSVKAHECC

IC50 (Alpha Polymerase) [nM]	melting point [°C]	IC50 (HCMV polymerase)	SMILES
> 5000	–	8.6 nM and 7.8 nM and 7.2 nM	CN(Cc1cc2c3c(c1)c(=O)c(C(=O)NCc1ccc(Cl)cc1)cn3CC(=O)N2C)CC(O)c1cc2ccccc2o1 (racemic) [Example 3, rac 9-{([2-(1-benzofuran-2-yl)-2-hydroxyethyl](methyl)amino)methyl}-N-(4-chlorobenzyl)-1-methyl-2,7-dioxo-2,3-dihydro-1H,7H-pyrido[1,2,3-de]quinoxaline-6-carboxamide]
–	150 to 152	810 nM	CN(Cc1cc2c3c(c1)c(=O)c(C(=O)NCc1ccc(F)cc1)cn3CC(=O)N2C)C[C@@H](O)c1ccccc1 [Example 29, N-(4-fluorobenzyl)-9-{[[(2S)-2-hydroxy-2-phenylethyl](methyl)amino]methyl}-1-methyl-2,7-dioxo-2,3-dihydro-1H,7H-pyrido[1,2,3-de]quinoxaline-6-carboxamide]
–	94 to 96	< 30 nM	CN(Cc1cc2c3c(c1)c(=O)c(C(=O)NCc1ccc(F)cc1)cn3CC(=O)N2C)C[C@@H](O)c1cc2ccccc2o1 [Example 36, 9-{[[(2R)-2-(1-benzofuran-2-yl)-2-hydroxyethyl](methyl)amino]methyl}-N-(4-fluorobenzyl)-1-methyl-2,7-dioxo-2,3-dihydro-1H,7H-pyrido[1,2,3-de]quinoxaline-6-carboxamide]
–	195 to 197	1190 nM	CN(Cc1cc2c3c(c1)c(=O)c(C(=O)NCc1ccc(F)cc1)cn3CC(=O)N2C)C[C@H](O)c1cc2ccccc2o1 [Example 37, 9-{[[(2S)-2-(1-benzofuran-2-yl)-2-hydroxyethyl](methyl)amino]methyl}-N-(4-fluorobenzyl)-1-methyl-2,7-dioxo-2,3-dihydro-1H,7H-pyrido[1,2,3-de]quinoxaline-6-carboxamide]

The remaining lines, values behind:

SMILES	IC50 (Alpha Polymerase) [nM]	melting point [°C]	IC50 (HCMV polymerase)
CN(Cc1cc2c3c(c1)c(=O)c(C(=O)NCc1ccc(Cl)cc1)cn3CC(=O)N2C)CC(O)c1ccc(O)cc1 (racemic) [Example 2, rac N-(4-chlorobenzyl)-9-{([2-hydroxy-2-(4-hydroxyphenyl)ethyl](methyl)amino)methyl}-1-methyl-2,7-dioxo-2,3-dihydro-1H,7H-pyrido[1,2,3-de]quinoxaline-6-carboxamide]	> 5000	145 to 148	70 nM and 93 nM
Cc1ccc(C(O)CN(C)Cc2cc3c4c(c2)c(=O)c(C(=O)NCc2ccc(Cl)cc2)cn4CC(=O)N3C)o1 (racemic) [Example 6, rac N-(4-chlorobenzyl)-9-{([2-hydroxy-2-(5-methyl-2-furyl)ethyl](methyl)amino)methyl}-1-methyl-2,7-dioxo-2,3-dihydro-1H,7H-pyrido[1,2,3-de]quinoxaline-6-carboxamide]	> 20000	159 to 161	120 nM and 89 nM
CN(Cc1cc2c3c(c1)c(=O)c(C(=O)NCc1ccc(Cl)cc1)cn3CC(=O)N2C)CC(O)c1csc2ccccc12 (racemic) [Example 15, rac 9-{([2-(1-benzothien-3-yl)-2-hydroxyethyl](methyl)amino)methyl}-N-(4-chlorobenzyl)-1-methyl-2,7-dioxo-2,3-dihydro-1H,7H-pyrido[1,2,3-de]quinoxaline-6-carboxamide]	> 20000	147 to 149	110 nM and 86 nM
CN(Cc1cc2c3c(c1)c(=O)c(C(=O)NCc1ccc(Cl)cc1)cn3CC(=O)N2C)C[C@@H](O)c1ccccc1 [Example 12, N-(4-chlorobenzyl)-9-{[[(2S)-2-hydroxy-2-phenylethyl](methyl)amino]methyl}-1-methyl-2,7-dioxo-2,3-dihydro-1H,7H-pyrido[1,2,3-de]quinoxaline-6-carboxamide]	≥ 20000	–	–
CN(Cc1cc2c3c(c1)c(=O)c(C(=O)NCc1ccc(F)cc1)cn3CC(=O)N2C)C[C@@H](O)c1nccs1 [Example 27, N-(4-fluorobenzyl)-9-{[[(2R)-2-hydroxy-2-(1,3-thiazol-2-yl)ethyl](methyl)amino]methyl}-1-methyl-2,7-dioxo-2,3-dihydro-1H,7H-pyrido[1,2,3-de]quinoxaline-6-carboxamide]	–	156 to 158	2080 nM
CN(Cc1cc2c3c(c1)c(=O)c(C(=O)NCc1ccc(F)cc1)cn3CC(=O)N2C)C[C@@H](O)c1ccsc1 [Example 28, N-(4-fluorobenzyl)-9-{[[(2S)-2-hydroxy-2-thien-3-ylethyl](methyl)amino]methyl}-1-methyl-2,7-dioxo-2,3-dihydro-1H,7H-pyrido[1,2,3-de]quinoxaline-6-carboxamide]	–	150 to 152	690 nM
CN(Cc1cc2c3c(c1)c(=O)c(C(=O)NCc1ccc(F)cc1)cn3CC(=O)N2C)C[C@@H](O)c1cnccn1 [Example 30, N-(4-fluorobenzyl)-9-{[[(2R)-2-hydroxy-2-pyrazin-2-ylethyl](methyl)amino]methyl}-1-methyl-2,7-dioxo-2,3-dihydro-1H,7H-pyrido[1,2,3-de]quinoxaline-6-carboxamide]	–	108 to 110	1090 nM
CN(Cc1cc2c3c(c1)c(=O)c(C(=O)NCc1ccc(Cl)cc1)cn3CC(=O)N2CCO)C[C@@H](O)c1ccco1 [Example 31, N-(4-chlorobenzyl)-9-{([(2R)-2-(2-furyl)-2-hydroxyethyl](methyl)amino)methyl}-1-(2-hydroxyethyl)-2,7-dioxo-2,3-dihydro-1H,7H-pyrido[1,2,3-de]quinoxaline-6-carboxamide]	–	166 to 167	2890 nM
CN(Cc1cc2c3c(c1)c(=O)c(C(=O)NCc1ccc(F)cc1)cn3CC(=O)N2C)C[C@@H](O)c1cccs1 [Example 32, N-(4-fluorobenzyl)-9-{[[(2R)-2-hydroxy-2-thien-2-ylethyl](methyl)amino]methyl}-1-methyl-2,7-dioxo-2,3-dihydro-1H,7H-pyrido[1,2,3-de]quinoxaline-6-carboxamide]	–	113 to 115	580 nM
